This is an account of results in patent publication US12630719B2, “Fluorescent acridinium salts, synthesis thereof and use for detection of cardiolipin” (LATVIAN INSTITUTE OF ORGANIC SYNTHESIS, priority 2019, dated 2026).

Molecules are shown by their SMILES.

Data set [1] in a line: Photo-physical properties in aqueous HEPES buffer solution. In kind it is physicochemical. To be noted: aqueous HEPES buffer 20 mM, pH 7.4. How it is done:
Photo-physical properties of I-1-I-5 was measured in aqueous HEPES [4-(2-hydroxyethyl)piperazine-1-ethanesulfonic acid] buffer solution (20 mM, pH 7.4); NAO bromide was used as reference compound. Similar to NAO, derivatives I-1-I-5 have absorption maxima at 494-498 nm, and emission maxima at 528-529 nm (Table 1). […] Moreover, the trimethylsilylpropyl substituent in position 10 improved PLQY up to 60.7% (I-5). […] The introduction of longer alkyl chains such as nonyl and dodecyl led to PLQY decrease.

The nature of data set [2]: Stability of fluorescence during experiments. In kind it is physicochemical. To be noted: in 30 minutes. The source says:
(§1) Besides, NAO fluorescence intensity loss during interaction of DOPC was detected at 5.6% level.

The nature of data set [3]: Fluorescence intensity on interaction with CL/DOPC liposomes. Particulars: for fluorescence intensity after interaction with CL/DOPC liposomes: CL/DOPC liposomes (3:1), end value of the drop; for fluorescence intensity before interaction with CL/DOPC liposomes: start value of the drop. In kind it is binding. Here is the method:
(§2) Liposomes preparation. Vesicles were prepared by classic thin film method. […] Obtained large multilamellar liposomes were sonicated in a bath-type sonicator at room temperature for 30 min following by extrusion through a 100 nm polycarbonate filter for 21 times. The quality of the resulting small unilamellar vesicles was monitored by dynamic light scattering (DLS) technique. These stock solutions were diluted 5-fold to acquire 2nd stock solutions that were used in the fluorometric experiments.

A short description of data set [4]: Titration with cardiolipin, linear regression curve. In kind it is binding. How it is done: as §2
Data set [5] can be described thus: Fluorescence intensity in the presence of DOPC liposomes without cardiolipin (selectivity). In kind it is binding. How it is done: as §1, §2
For data set [6] the following is noted: decrease of green fluorescence in the presence of CL; cited from earlier work.

For the molecule `C[n+]1c2cc(N3CCC3)ccc2cc2ccc(N3CCC3)cc21.[I-]` [Compound I-1, 3,6-di(azetidin-1-yl)-10-methylacridin-10-ium iodide], in data set [1], the “Φ (PLQY, photoluminescence quantum yield)” value is listed as 59.9%; the λabs is recorded as 497 nm; the λem was determined as 529 nm.
The corresponding values for `[2H]C([2H])([2H])[n+]1c2cc(N3CCC3)ccc2cc2ccc(N3CCC3)cc21.[I-]` [Compound I-2, 3,6-di(azetidin-1-yl)-10-(methyl-d3)acridin-10-ium iodide] are 61.5%, 497 nm and 529 nm.
Regarding `CCCCCCCCC[n+]1c2cc(N3CCC3)ccc2cc2ccc(N3CCC3)cc21.[I-]` [Compound I-3, 3,6-di(azetidin-1-yl)-10-nonylacridin-10-ium iodide], in data set [1], the “Φ (PLQY, photoluminescence quantum yield)” value worked out at 47.9%; the λabs amounted to 498 nm; the λem is on record as 529 nm.
Regarding `CCCCCCCCCCCC[n+]1c2cc(N3CCC3)ccc2cc2ccc(N3CCC3)cc21.[I-]` [Compound I-4, 3,6-di(azetidin-1-yl)-10-dodecylacridin-10-ium iodide], in data set [1], the “Φ (PLQY, photoluminescence quantum yield)” value was determined as 16.1%; the λabs stood at 494 nm; the λem turned out to be 528 nm.
For `C[Si](C)(C)CCC[n+]1c2cc(N3CCC3)ccc2cc2ccc(N3CCC3)cc21.[I-]` [Compound I-5, 3,6-di(azetidin-1-yl)-10-(3-(trimethylsilyl)propyl)acridin-10-ium iodide], in data set [2], the “fluorescence intensity drop during experiments” value was “remaining the same”. In data set [1], the “Φ (PLQY, photoluminescence quantum yield)” value worked out at 60.7%; the λabs came to 497 nm; the λem is given as 529 nm. In data set [3], the “fluorescence intensity after interaction with CL/DOPC liposomes” value turned out to be 6600 a.u and the “fluorescence intensity before interaction with CL/DOPC liposomes” value worked out at 65800 a.u. Besides, the “linear slope of the titration curve” value in data set [4] is listed as −6259±250. Further, the “fluorescence intensity drop in the presence of DOPC liposomes” value in data set [5] is on record as 7.7%.
In the case of `CCCCCCCCC[n+]1c2cc(N(C)C)ccc2cc2ccc(N(C)C)cc21` [NAO, 10-N-nonyl acridine orange, reference compound], in data set [2], the “fluorescence intensity drop during experiments” value is 15.5%. In data set [1], the “Φ (PLQY, photoluminescence quantum yield)” value was 15.5%; the λabs is recorded as 498 nm; the λem is recorded as 528 nm. Also, in data set [6], the “CL content that can be quantitatively analyzed” value was 0.2 to 10 µM. Moreover, in data set [3], the “fluorescence intensity after interaction with CL/DOPC liposomes” value amounted to 1260 a.u and the “fluorescence intensity before interaction with CL/DOPC liposomes” value came out at 13300 a.u. The “linear slope of the titration curve” value in data set [4] is listed as −1222±49. Further, the “fluorescence intensity drop in the presence of DOPC liposomes” value in data set [5] is recorded as 5.6%.
